Data published in publication PMC11845477, “Exploring the principles behind antibiotics with limited resistance” (Nature Communications, 2025).

System: P. aeruginosa ATCC BAA-3107 (SEN) and P. aeruginosa LESB58 (MDR)
Assay: Adaptive laboratory evolution (ALE), relative MIC of evolved lines
Type: cell-based, Pseudomonas aeruginosa
Method in brief: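 Ten parallel populations per antibiotic–ancestor pair were evolved in MHB at 37 °C, starting near 50% growth-inhibiting drug. Every 72 h they were passaged into 0.5–2.5× increasing concentrations, keeping the highest-drug well with OD600 > 0.2.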

polymyxin-B showed an MIC of evolved line (PA-MDR (P. aeruginosa LESB 58), evolved line 4 of the given antibiotic) of 4 µg/mL, an MIC of evolved line (PA-MDR (P. aeruginosa LESB 58), evolved line 5 of the given antibiotic) of 4 µg/mL and an MIC of evolved line (PA-MDR (P. aeruginosa LESB 58), evolved line 7 of the given antibiotic) of 32 µg/mL. For the same substance, the MIC of evolved line (PA-MDR (P. aeruginosa LESB 58), evolved line 8 of the given antibiotic) was 8 µg/mL, the MIC of evolved line (PA-MDR (P. aeruginosa LESB 58), evolved line 10 of the given antibiotic) was 16 µg/mL and the MIC of evolved line (PA-MDR LESB 58, evolved line 1) was 64 µg/mL. It also gave an MIC of evolved line (PA-MDR LESB 58, evolved line 2) of 256 µg/mL, an MIC of evolved line (PA-MDR LESB 58, evolved line 3) of 16 µg/mL and an MIC of evolved line (PA-SEN (P. aeruginosa ATCC BAA 3107), evolved line 1 of the given antibiotic) of 32 µg/mL. It also gave an MIC of evolved line (PA-SEN (P. aeruginosa ATCC BAA 3107), evolved line 4 of the given antibiotic) of 32 µg/mL, an MIC of evolved line (PA-SEN (P. aeruginosa ATCC BAA 3107), evolved line 5 of the given antibiotic) of 32 µg/mL and an MIC of evolved line (PA-SEN (P. aeruginosa ATCC BAA 3107), evolved line 6 of the given antibiotic) of 4 µg/mL. It also gave an MIC of evolved line (PA-SEN (P. aeruginosa ATCC BAA 3107), evolved line 7 of the given antibiotic) of 16 µg/mL, an MIC of evolved line (PA-SEN (P. aeruginosa ATCC BAA 3107), evolved line 8 of the given antibiotic) of 16 µg/mL and an MIC of evolved line (PA-SEN (P. aeruginosa ATCC BAA 3107), evolved line 9 of the given antibiotic) of 4 µg/mL. For the same substance, the MIC of evolved line (PA-SEN (P. aeruginosa ATCC BAA 3107), evolved line 10 of the given antibiotic) was 4 µg/mL.
